Test system: T84 cells
Assay: Induction of apoptosis, DNA fragmentation analysis, T84
Assay type: cell-based, human
Conditions: 12 hours treatment
Procedure: T84, CaCo-2 and HUVEC cells, respectively, were grown in 100 mm dishes for 7-9 days, culture media for HUVEC was EGM-2 (Clonetics, BioWhitaker Co.), until they reached semi-confluency. Cell monolayers were then treated for 12 hours (CaCo-2 and T84) and 16 hours (HUVEC), respectively, at the indicated concentrations of N,N,-diethyl-8,8-dipropyl-2-azaspiro[4,5]decane-2-propanamine dimaleate (Compound 1) in culture media. Cells were collected by trypsinization and the apoptotic DNA was isolated from these cells following the instructions of the DNA fragmentation analysis kit (Boehringer Mannheim Corp., Indianapolis, Ind.). The apoptotic DNA was evaluated using 1.5% agarose gel electrophoresis followed by staining with ethidium bromide. M denotes the lane containing molecular weight markers of DNA.

## CCCC1(CCC)CCC2(CCN(CCCN(CC)CC)C2)CC1.O=C(O)/C=C\C(=O)O.O=C(O)/C=C\C(=O)O [Compound 1, N,N,-diethyl-8,8-dipropyl-2-azaspiro[4,5]decane-2-propanamine dimaleate]
  DNA ladder formation (apoptosis): formation of DNA laddering in a dose-dependent manner

Reference: US20050250801A1, “Method of treating cancer with azaspirane compositions” (priority 2003, published 2005)
